Data published in article PMC9731865, “Gambogic acid and juglone inhibit RNase P through distinct mechanisms” (The Journal of Biological Chemistry, 2022).

Assays:
[1] = biological target: T1, PRORP1 C373A (Arabidopsis thaliana, UniProt Q66GI4, C373A); assay: Time-dependent inactivation by juglone, PRORP1 C373A; format: biochemical, A. thaliana
T1 construct: made in house
Method: Given the multiple sites of cysteine modification, we wanted to identify the one(s) that potentially play a significant role in PRORP1 inactivation. Therefore, several cysteine-to-alanine point mutants were expressed, purified, and subjected to inhibition studies. We tested both single-site (C353A and C373A) and double-site (C353A/C373A and C222A/C353A) mutations. […] The value of kinact,app for each PRORP1 at varied concentrations of juglone was determined by fitting a single exponential equation (Equation 5) to the data (Fig. 10A). Unexpectedly, the values of kinact/KI (reflecting the inhibition of E + I to form EI∗) increased for a number of the PRORP1 variants: wildtype (0.001 ± 0.00004 μM^-1 min^-1), C353A (0.005 ± 0.002 μM^−1 min^−1), C373A (0.002 ± 0.0004 μM^-1 min^−1), C222A/C353A (0.003 ± 0.0001 μM^−1 min^−1), and C353A/C373A (0.0008 ± 0.0002 μM^-1 min^−1). These modest increases could be due to a decrease in the KI value or an increase in the value of kinact. […] Although, we cannot discount the possibility, however unlikely, that juglone may employ a mode of inhibition beyond cysteine residue modification that our crystal structures fail to capture.
Figure 10 Effects of PRORP1 cysteine mutations on juglone inactivation. […]
For the analysis of juglone, PRORP1 activity was measured with varying preincubation time and juglone concentration. […]

[2] = test system: B. subtilis RNase P; assay: B. subtilis RNase P activity assay (FP, real-time); format: biochemical; settings: ratio of IC50 values
Method: Figure 4 Gambogic acid and juglone inhibit A. thaliana PRORP1 (green), human MRPP1/2/3 (red), and B. subtilis RNase P (blue). Compounds gambogic acid (A) and juglone (B) were incubated with enzyme at double the reaction concentration for 30 min prior to the addition of an equal volume of substrate to initiate the reaction. PRORP1 reactions (shown in green) were performed with 0.3 nM PRORP1 and 800 nM pre-tRNA containing 40 nM Fl-pre-tRNA at 25 °C in 30 mM MOPS pH 7.8, 5 mM MgCl2, 100 mM NaCl, 1 mM TCEP, 500 nM (12 μg/ml) yeast tRNA, 5 mM spermidine, 6.65 μg/ml BSA, and 0.01% NP-40. MRPP1/2/3 reactions (shown in red) were performed using 50 nM MRPP3, 500 nM MRPP1/2, 500 nM pre-tRNA containing 40 nM Fl-pre-tRNA at 37 °C in 50 mM MOPS (pH 7.8), 1 mM TCEP, 4.5 mM MgCl2, and 100 mM NaCl. B. subtilis RNase P reactions (shown in blue) were performed using 20 nM RNase P and 500 nM pre-tRNA containing 40 nM Fl-pre-tRNA at 37 °C in 50 mM Tris, pH 7.2, 5 mM MgCl2, 100 mM KCl, 500 nM (12 μg/ml) yeast tRNA, 20 mM dithiothreitol (DTT), 10 mM spermidine, and 0.01% NP-40. Equation 1 was fit to each dataset.
The inhibition of B. subtilis RNase P activity by gambogic acid and juglone was measured using a previously developed FP assay in real-time.^25 Reactions were performed under multiple turnover conditions using 20 nM RNase P and 500 nM Fl-pre-tRNA^Asp in 50 mM Tris (pH 7.2), 5 mM MgCl2, 100 mM KCl, 500 nM (12 μg/ml) yeast tRNA^mix, 20 mM dithiothreitol, 10 mM spermidine, and 0.01% NP-40 at 37 °C.

T1 sequence (Q66GI4 77-572 C373A): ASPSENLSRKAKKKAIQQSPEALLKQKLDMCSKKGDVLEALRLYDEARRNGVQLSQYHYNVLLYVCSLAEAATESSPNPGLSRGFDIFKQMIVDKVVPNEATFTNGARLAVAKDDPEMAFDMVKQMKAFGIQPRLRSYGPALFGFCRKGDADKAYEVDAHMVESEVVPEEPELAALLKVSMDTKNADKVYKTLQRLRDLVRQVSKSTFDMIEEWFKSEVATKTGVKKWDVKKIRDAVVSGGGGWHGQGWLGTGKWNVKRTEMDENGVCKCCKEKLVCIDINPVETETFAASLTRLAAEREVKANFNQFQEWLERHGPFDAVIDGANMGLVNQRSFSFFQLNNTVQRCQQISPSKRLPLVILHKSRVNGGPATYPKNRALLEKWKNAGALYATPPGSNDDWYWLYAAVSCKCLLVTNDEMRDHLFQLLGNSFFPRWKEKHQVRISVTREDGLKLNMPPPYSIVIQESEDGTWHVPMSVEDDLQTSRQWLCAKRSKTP

Structure (SMILES) | Ki [1] | kinact/KI [1] | fold less potent against B. subtilis RNP RNase P than against PRORP1 and MRPP1/2/3 [2] | fold less potent against B. subtilis RNP RNase P than against PRORP1 and MRPP1/2/3 ([2]; listed as Gambogic acid)
O=C1C=CC(=O)c2c(O)cccc21 [juglone, 5-hydroxy-1,4-naphthalenedione] | > 10 µM | 33.3 M⁻¹ s⁻¹ |  | 
CC(C)=CCC[C@]1(C)C=Cc2c(O)c3c(c(CC=C(C)C)c2O1)O[C@]12C(=C[C@@H]4C[C@H]1C(C)(C)O[C@@]2(C/C=C(/C)C(=O)O)C4=O)C3=O [gambogic acid] |  |  | at least 50 fold | more than 50 fold
